Data: patent US6472348B1, “Pyridone derivatives and herbicides” (Kumiai Chemical Industry Co., Ltd., priority 1996, dated 2002)

Experiments:
Format in all cases: in vivo
Parameters in all cases: scale not given here
[1] = system: green foxtail (Se); assay: Test Example 7: crop plant selectivity by upland field soil treatment (corn), herbicidal effects; details: 21st day after application
Summary of the method: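 Sand-filled pot; corn plus weeds sown, soil-covered. Post-application greenhouse culture. Herbicidal effect/phytotoxicity rated day 21 per standard scale.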

[2] = system: wheat (Tr); assay: Test Example 5: crop plant selectivity by upland field soil treatment (wheat), phytotoxicity; details: 21st day after application
Summary of the method: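 Pre-emergence soil treatment, sand-filled pots, seeds covered with soil; greenhouse culture; visual scoring of weed control and wheat injury at day 21 post-application.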

[3] = system: green foxtail (Se); assay: Test Example 4: crop plant selectivity by upland field soil treatment (cotton), herbicidal effects; details: evaluated 21st day after application
Summary of the method: (§1)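 Cotton is sown alongside weeds in pots of sand, covered with soil, and the soil surface is treated. After greenhouse growth, herbicidal activity and phytotoxicity are graded on the 21st day.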

[4] = system: slender amaranth (Am); assay: as above; details: evaluated 21st day after application
Summary of the method: as §1

[5] = system: pale smartweed (Po); assay: as above; details: evaluated 21st day after application
Summary of the method: as §1

[6] = system: China jute (Ab); assay: as above; details: evaluated 21st day after application
Summary of the method: as §1

[7] = system: common lambsquarters (Ch); assay: as above; details: evaluated 21st day after application
Summary of the method: as §1

[8] = system: slender amaranth (Am); assay: Test Example 11: crop plant selectivity by upland field foliage treatment (corn), herbicidal effects; details: dose 1.6 g ai/10a
Summary of the method: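 Corn and the weed species were sown together in sand-filled pots and grown in a greenhouse for 2 weeks before foliar treatment. Herbicidal effect was scored on day 14 after treatment against a graded standard scale, with corn phytotoxicity scored alongside.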

[9] = system: cotton (Go); assay: Test Example 4: crop plant selectivity by upland field soil treatment (cotton), phytotoxicity; details: evaluated 21st day after application
Summary of the method: as §1

[10] = upland field foliage treatment (corn test), 14th day after treatment

| SMILES | Herbicidal effects Se ([1]; dose 6.3 g ai/10a) | Phytotoxicity Tr ([2]; dose 6.3 g ai/10a) | Herbicidal effects Se ([3]; dose 6.3 g ai/10 a) | Herbicidal effects Am ([4]; dose 6.3 g ai/10 a) | Herbicidal effects Po ([5]; dose 6.3 g ai/10 a) | Herbicidal effects Ab ([6]; dose 6.3 g ai/10 a) | Herbicidal effects Ch ([7]; dose 6.3 g ai/10 a) | Herbicidal effects Am ([8]; slender amaranth, foliage treatment, evaluated on 14th day after treatment, index per Table 47) | Phytotoxicity Go ([9]; dose 6.3 g ai/10 a) | Herbicidal effects Se ([1]; dose 1.6 g ai/10a) | Phytotoxicity Tr ([2]; dose 1.6 g ai/10a) | Herbicidal effects Se ([3]; dose 1.6 g ai/10 a) | Herbicidal effects Am ([4]; dose 1.6 g ai/10 a) | Herbicidal effects Po ([5]; dose 1.6 g ai/10 a) | Herbicidal effects Ab ([6]; dose 1.6 g ai/10 a) | Herbicidal effects Ch ([7]; dose 1.6 g ai/10 a) | Herbicidal effects Am [8, 10] | Phytotoxicity Go ([9]; dose 1.6 g ai/10 a) |
| --- | --- | --- | --- | --- | --- | --- | --- | --- | --- | --- | --- | --- | --- | --- | --- | --- | --- | --- |
| CCc1cc2c(Cl)cc(F)c(-c3ccc(C(F)(F)F)n(C)c3=O)c2o1 [Compound 5-2] | 5 | 1 | 5 | 5 | 5 | 5 | 5 | 5 | 1 |  |  |  |  |  |  |  |  |  |
| CON=Cc1cc(-c2ccc(C(F)(F)F)n(C)c2=O)c(F)cc1Cl [Compound No. 1-72, 5-(1-methyl-6-trifluoromethyl-2(1H)-pyridon-3-yl)-2-chloro-4-fluorobenzaldehydeoxime-O-methyl ether] |  |  | 5 | 5 | 5 | 5 | 5 |  | 0 | 5 | 1 | 5 | 5 | 5 | 5 | 5 | 5 | 0 |
| CCCC(=O)c1cc(-c2ccc(C(F)(F)F)n(C)c2=O)c(F)cc1Cl [Compound No. 1-194, 3-[4-chloro-2-fluoro-5-(1-oxobutyl)phenyl]-1-methyl-6-trifluoromethyl-2(1H)-pyridone] | 5 | 1 | 5 | 5 | 5 | 5 | 5 |  | 1 |  |  |  |  |  |  |  | 5 |  |
| COCc1cc2c(-c3ccc(C(F)(F)F)n(C)c3=O)c(F)cc(Cl)c2o1 [Compound No. 4-4, 3-(7-chloro-5-fluoro-2-methoxymethylbenzofuran-4-yl)-1-methyl-6-trifluoromethyl-2-(1H)-pyridone] | 5 |  | 5 | 5 | 5 | 5 | 5 |  | 1 | 5 | 2 | 5 | 5 | 5 | 5 | 5 | 5 | 0 |
| Cn1c(C(F)(F)F)ccc(-c2c(F)cc(Cl)c3oc(CO)cc23)c1=O [Compound No. 4-5, 3-(7-chloro-5-fluoro-2-hydroxymethylbenzofuran-4-yl)-1-methyl-6-trifluoromethyl-2-(1H)-pyridone] | 5 | 1 | 5 | 5 | 5 | 5 | 5 |  | 2 |  |  |  |  |  |  |  | 5 |  |
| Cn1c(C(F)(F)F)ccc(-c2c(F)cc(Cl)c3occc23)c1=O [Compound No. 4-28, 3-(7-chloro-5-fluorobenzofuran-4-yl)-1-methyl-6-trifluoromethyl-2-(1H)-pyridone] |  | 2 | 5 | 5 | 5 | 5 | 5 |  | 1 | 5 |  | 5 | 5 | 5 | 5 | 5 | 5 | 0 |
